# According to the Kinase Knowledgebase extract (Sharma et al. 2016):
# Biological target: PIK3CB;PIK3CG;PIK3CD;PIK3CA (human) (UniProt P48736)
# Experiment: Enzyme Assay
row,IC50,Structure (SMILES)
1,1520 nM,O=C(c1nn(C2CCNCC2)c2c1CS(=O)(=O)c1ccccc1-2)N1CCOCC1
2,274 nM,O=C(c1ccc(-n2nc(C(=O)N3CCOCC3)c3c2-c2ccccc2S(=O)(=O)C3)cc1)N1CCOCC1
3,995 nM,O=C(c1nn(-c2ccc(C3(CN4CCOCC4)CC3)cc2)c2c1CS(=O)(=O)c1ccccc1-2)N1CCOCC1
4,420 nM,O=C(c1nn(C2CCCC(C(=O)N3CCOCC3)C2)c2c1CS(=O)(=O)c1ccccc1-2)N1CCOCC1 (configuration not stated)
5,54 nM,O=C(c1nn(C2CCCN(CCC3CCOCC3)C2)c2c1CS(=O)(=O)c1ccccc1-2)N1CCOCC1 (configuration not stated)
6,9790 nM,CCCCNc1ccc2c(c1)S(=O)(=O)Cc1c(C(=O)N3CCOCC3)nn(-c3ccccc3)c1-2
7,59 nM,COc1cccc2c1S(=O)(=O)Cc1c(C(=O)N3CCOCC3)nn([C@H]3CCCN(CCN4CCOCC4)C3)c1-2
8,2770 nM,Cn1nc(C(=O)N2CCOCC2)c2c1-c1cc([N+](=O)[O-])ccc1S(=O)(=O)C2
9,14 nM,O=C(c1nn([C@H]2CCCN(CCN3CCOCC3)C2)c2c1CS(=O)(=O)c1cc(F)ccc1-2)N1CCOCC1
10,36 nM,O=C(c1nn(C2CCCN(CCN3CC(F)(F)C3)C2)c2c1CS(=O)(=O)c1ccccc1-2)N1CCOCC1 (configuration not stated)
11,105 nM,CC(=O)NCCN1CCC[C@H](n2nc(C(=O)N3CCOCC3)c3c2-c2ccccc2S(=O)(=O)C3)C1
12,236 nM,O=C(c1nn(C2CN(CCN3CCOCC3)C2)c2c1CS(=O)(=O)c1ccccc1-2)N1CCOCC1
13,85 nM,O=C(c1nn([C@H]2CCCN(Cc3cccnc3)C2)c2c1CS(=O)(=O)c1ccccc1-2)N1CCOCC1
14,1920 nM,COCCN1CCC(n2nc(C(=O)N3CCOCC3)c3c2-c2ccccc2S(=O)(=O)C3)CC1
15,29 nM,CC1CN(CCN2CCC[C@H](n3nc(C(=O)N4CCOCC4)c4c3-c3ccccc3S(=O)(=O)C4)C2)CCO1 (some centres not stated)
16,92 nM,O=C(c1nn([C@H]2CCN(CCC3CCOCC3)C2)c2c1CS(=O)(=O)c1c(F)cccc1-2)N1CCOCC1
17,4200 nM,Cc1ccc(F)cc1-n1nc(C(=O)N2CCOCC2)c2c1-c1ccccc1S(=O)(=O)C2
18,6 nM,O=C(c1nn([C@H]2CCCN(CCC3CCOCC3)C2)c2c1CS(=O)(=O)c1c(F)cccc1-2)N1CCOCC1
19,10700 nM,O=C(c1nn(Cc2cnccn2)c2c1CS(=O)(=O)c1ccccc1-2)N1CCOCC1
20,202 nM,O=C(c1nn(-c2ccc(CN3CCOCC3)cc2)c2c1CS(=O)(=O)c1cc(F)ccc1-2)N1CCOCC1
21,692 nM,O=C(c1nn(C2CCN(CCC3CCOCC3)CC2)c2c1CS(=O)(=O)c1ccccc1-2)N1CCOCC1
22,80 nM,O=C(c1nn([C@H]2CCCN(C3CCOCC3)C2)c2c1CS(=O)(=O)c1ccccc1-2)N1CCOCC1

row,IC50,Structure (SMILES)
1,362 nM,O=C(c1nn(C2CCCC(C(=O)N3CCCCC3)C2)c2c1CS(=O)(=O)c1ccccc1-2)N1CCOCC1 (configuration not stated)
2,326 nM,O=C(c1nn(C2CCCOC2)c2c1CS(=O)(=O)c1ccccc1-2)N1CCOCC1 (configuration not stated)
3,249 nM,COC1CCN(Cc2ccc(-n3nc(C(=O)N4CCOCC4)c4c3-c3ccccc3S(=O)(=O)C4)cc2)CC1
4,1490 nM,O=C(c1nn(Cc2nc3ccccc3s2)c2c1CS(=O)(=O)c1ccccc1-2)N1CCOCC1
5,1030 nM,O=C(c1nn(C2CCOCC2)c2c1CS(=O)(=O)c1c(F)cccc1-2)N1CCOCC1
6,1620 nM,O=C(c1nn(-c2ccccc2)c2c1CS(=O)(=O)c1ccc(CN3CCOCC3)cc1-2)N1CCOCC1
7,320 nM,O=C(c1nn(C2CCCN(CCF)C2)c2c1CS(=O)(=O)c1ccccc1-2)N1CCOCC1 (configuration not stated)
8,28 nM,CN1CCC(N2CCC[C@H](n3nc(C(=O)N4CCOCC4)c4c3-c3ccccc3S(=O)(=O)C4)C2)CC1
9,52 nM,O=C(c1nn(C2CCCN(CCn3ccnc3)C2)c2c1CS(=O)(=O)c1ccccc1-2)N1CCOCC1 (configuration not stated)
10,200 nM,O=C(c1nn([C@H]2CCCN(CCF)C2)c2c1CS(=O)(=O)c1ccccc1-2)N1CCOCC1
11,25 nM,O=C(c1nn([C@H]2CCCN(C3CCCOC3)C2)c2c1CS(=O)(=O)c1c(F)cccc1-2)N1CCOCC1 (some centres not stated)
12,40 nM,COCCN1CCC[C@H](n2nc(C(=O)N3CCOCC3)c3c2-c2ccccc2S(=O)(=O)C3)C1
13,25 nM,O=C(c1nn([C@H]2CCCN(C3CCCNC3)C2)c2c1CS(=O)(=O)c1ccccc1-2)N1CCOCC1 (some centres not stated)
14,22 nM,O=C(c1nn(C2CCCN(CCC3CCOCC3)C2)c2c1CS(=O)(=O)c1c(F)cccc1-2)N1CCOCC1 (configuration not stated)
15,1640 nM,O=C(c1nn(-c2ccc3[nH]ncc3c2)c2c1CS(=O)(=O)c1ccccc1-2)N1CCOCC1
16,13 nM,O=C(c1nn([C@H]2CCCN(C3CCOCC3)C2)c2c1CS(=O)(=O)c1c(F)cccc1-2)N1CCOCC1
17,871 nM,CC(=O)OCCN1CCC(n2nc(C(=O)N3CCOCC3)c3c2-c2ccccc2S(=O)(=O)C3)C1 (configuration not stated)
18,3510 nM,CNc1cccc2c1S(=O)(=O)Cc1c(C(=O)N3CCOCC3)nn(-c3ccccc3)c1-2
19,368 nM,Nc1ccc2c(c1)-c1c(c(C(=O)N3CCOCC3)nn1-c1ccccc1)CS2(=O)=O
20,815 nM,O=C(c1nn(C2CCCN(CCO)C2)c2c1CS(=O)(=O)c1ccccc1-2)N1CCOCC1 (configuration not stated)
21,726 nM,COCCOc1cccc(-n2nc(C(=O)N3CCOCC3)c3c2-c2ccccc2S(=O)(=O)C3)c1
22,2100 nM,CS(=O)(=O)C1CCC(n2nc(C(=O)N3CCOCC3)c3c2-c2ccccc2S(=O)(=O)C3)CC1 (configuration not stated)

row,IC50,Structure (SMILES)
1,3010 nM,O=C(c1nn(C2CCCNC2)c2c1CS(=O)(=O)c1ccccc1-2)N1CCOCC1 (configuration not stated)
2,1110 nM,CN(C)Cc1cccc(-n2nc(C(=O)N3CCOCC3)c3c2-c2ccccc2S(=O)(=O)C3)c1
3,65 nM,C[C@@H]1CN(CCN2CCC[C@H](n3nc(C(=O)N4CCOCC4)c4c3-c3ccccc3S(=O)(=O)C4)C2)C[C@H](C)O1
4,180 nM,CC1COCCN1Cc1ccc(-n2nc(C(=O)N3CCOCC3)c3c2-c2ccccc2S(=O)(=O)C3)cc1 (configuration not stated)
5,7970 nM,O=C(c1nn([C@@H]2CCCN(CCF)C2)c2c1CS(=O)(=O)c1ccccc1-2)N1CCOCC1
6,394 nM,O=C(c1nn(-c2cccc(CN3CCCCC3)c2)c2c1CS(=O)(=O)c1ccccc1-2)N1CCOCC1
7,926 nM,O=C(Nc1cccnc1)c1cccc(-n2nc(C(=O)N3CCOCC3)c3c2-c2ccccc2S(=O)(=O)C3)c1
8,440 nM,O=C(c1nn(-c2cccc(Cl)c2)c2c1CS(=O)(=O)c1ccccc1-2)N1CCOCC1
9,2080 nM,O=C(c1nn(-c2ccc3nn(Cc4ccccc4)cc3c2)c2c1CS(=O)(=O)c1ccccc1-2)N1CCOCC1
10,341 nM,CC(C)(CN1CCOCC1)c1ccc(-n2nc(C(=O)N3CCOCC3)c3c2-c2ccccc2S(=O)(=O)C3)cc1
11,2200 nM,COc1ccc(-n2nc(C(=O)N3CCOCC3)c3c2-c2ccccc2S(=O)(=O)C3)cn1
12,826 nM,O=C(c1nn(-c2cccc(-c3ccoc3)c2)c2c1CS(=O)(=O)c1ccccc1-2)N1CCOCC1
13,113 nM,COCCN(CCOC)CCN1CCC[C@H](n2nc(C(=O)N3CCOCC3)c3c2-c2ccccc2S(=O)(=O)C3)C1
14,926 nM,Cc1cccc(-n2nc(C(=O)N3CCOCC3)c3c2-c2ccccc2S(=O)(=O)C3)c1
15,4280 nM,CN1CCN(C(=O)c2ccc3c(c2)-c2c(c(C(=O)N4CCOCC4)nn2-c2ccccc2)CS3(=O)=O)CC1
16,373 nM,O=C(c1nn(-c2ccc(F)cc2)c2c1CS(=O)(=O)c1ccccc1-2)N1CCOCC1
17,36 nM,O=C(c1nn([C@H]2CCCN(C3CCCOC3)C2)c2c1CS(=O)(=O)c1ncccc1-2)N1CCOCC1 (some centres not stated)
18,2200 nM,O=C(c1nn([C@@H]2CCCN(CCC3CCOCC3)C2)c2c1CS(=O)(=O)c1ccccc1-2)N1CCOCC1
19,5020 nM,CN(C)c1ccc2c(c1)S(=O)(=O)Cc1c(C(=O)N3CCOCC3)nn(-c3ccccc3)c1-2
20,1600 nM,O=C(c1nn(-c2ccccn2)c2c1CS(=O)(=O)c1ccccc1-2)N1CCOCC1
21,1260 nM,O=C(NC1CCOCC1)c1cccc(-n2nc(C(=O)N3CCOCC3)c3c2-c2ccccc2S(=O)(=O)C3)c1
22,876 nM,CC(=O)Nc1ccc2c(c1)-c1c(c(C(=O)N3CCOCC3)nn1-c1ccccc1)CS2(=O)=O

row,IC50,Structure (SMILES)
1,1540 nM,CC(C)(C)OC(=O)N1CCCC(n2nc(C(=O)N3CCOCC3)c3c2-c2ccccc2S(=O)(=O)C3)C1 (configuration not stated)
2,1040 nM,Cn1nc(C(=O)N2CCOCC2)c2c1-c1cc(Br)ccc1S(=O)(=O)C2
3,280 nM,O=C(c1nn(C2CCN(CCC3CCOCC3)C2)c2c1CS(=O)(=O)c1ccccc1-2)N1CCOCC1 (configuration not stated)
4,61 nM,O=C(c1nn(C2CCCN(CCC3CCOCC3)C2)c2c1CS(=O)(=O)c1ncccc1-2)N1CCOCC1 (configuration not stated)
5,9070 nM,O=C(c1nn(-c2ccccc2)c2c1CS(=O)(=O)c1ccccc1-2)N1CCCOCC1
6,11 nM,O=C(c1nn(C2CCCN(CC3CCOCC3)C2)c2c1CS(=O)(=O)c1ccccc1-2)N1CCOCC1 (configuration not stated)
7,5270 nM,Cn1nc(C(=O)N2CCOCC2)c2c1-c1ccccc1S(=O)(=O)C2Cc1ccccc1 (configuration not stated)
8,156 nM,O=C(c1nn(-c2ccc(CNC3CCOC3)cc2)c2c1CS(=O)(=O)c1ccccc1-2)N1CCOCC1 (configuration not stated)
9,240 nM,COC1CCN(Cc2cccc(-n3nc(C(=O)N4CCOCC4)c4c3-c3ccccc3S(=O)(=O)C4)c2)CC1
10,6610 nM,COCCNc1ccc2c(c1)S(=O)(=O)Cc1c(C(=O)N3CCOCC3)nn(-c3ccccc3)c1-2
11,2740 nM,O=C(c1nc(-c2ccccc2)n2c1CS(=O)(=O)c1ccccc1-2)N1CCOCC1
12,5070 nM,COCCCC1c2c(C(=O)N3CCOCC3)nn(-c3ccccc3)c2-c2ccccc2S1(=O)=O (configuration not stated)
13,912 nM,O=C(c1nn(C2CCC(CN3CCOCC3)CC2)c2c1CS(=O)(=O)c1ccccc1-2)N1CCOCC1 (configuration not stated)
14,459 nM,COc1ccc(Cn2nc(C(=O)N3CCOCC3)c3c2-c2ccccc2S(=O)(=O)C3)cc1
15,72 nM,O=C(c1nn(C2CCCN(CCN3CC[C@H](F)C3)C2)c2c1CS(=O)(=O)c1ccccc1-2)N1CCOCC1 (some centres not stated)
16,3000 nM,O=C(c1nn([C@@H]2CCCNC2)c2c1CS(=O)(=O)c1ccccc1-2)N1CCOCC1
17,45 nM,O=C(c1nn([C@H]2CCCN(Cc3ccncc3)C2)c2c1CS(=O)(=O)c1ccccc1-2)N1CCOCC1
18,18 nM,O=C(c1nn([C@H]2CCCN(CCN3CCC(O)CC3)C2)c2c1CS(=O)(=O)c1ccccc1-2)N1CCOCC1
19,184 nM,Cn1cc(-c2cccc(-n3nc(C(=O)N4CCOCC4)c4c3-c3ccccc3S(=O)(=O)C4)c2)cn1
20,25 nM,O=C(c1nn([C@H]2CCCN(CC3CCOCC3)C2)c2c1CS(=O)(=O)c1ccccc1-2)N1CCOCC1

row,Structure (SMILES),IC50
1,O=C(c1nn(C2CCN(CCCl)C2)c2c1CS(=O)(=O)c1ccccc1-2)N1CCOCC1 (configuration not stated),305 nM
